{
  "source": "patent US7033583B2",
  "about": "“Polymeric thiol-linked prodrugs” (Enzon Pharmaceuticals, Inc., priority 2001, dated 2006)",
  "key": {"[1]": {"tested_on": "P388/0 cell lines", "test": "Cytotoxicity assay (Alamar Blue) in P388/0 cells", "assay_type": "cell-based", "settings": "Mus musculus, 72 h, 3 days", "experimental": "Cell Lines and Cytotoxicity Assays. Studies using P388/0 cell lines for IC50 (drug concentration inhibiting growth of cells by 50%) were maintained and conducted as previously reported. Briefly, for IC50 determination, cells were seeded into the microwell plates at a density of 2×10^3 cells per 50 μL per well. Plates were incubated at 37° C. in a humidified incubator with 5% CO2 for 3 days. Cell growth was measured by the addition of 10 μL/well of Alamar Blue (Alamar Biosciences, Inc., Sacramento, Calif.) and the plates were incubated a further 4 h at 37° C. The IC50 values for each compound were determined from absorbance versus dilution factor plots. All cell cultures for animal implantation were maintained at 37° C. in a humidified atmosphere of 5% CO2/95% O2 and subcultured once a week. All cell lines were periodically tested for Mycoplasma and were Mycoplasma free."}, "[2]": {"tested_on": "Lung M109 Syngeneic Solid Tumors", "test": "In vivo efficacy against M109 solid tumors", "set-up": "species or system Balb/C mice", "settings": "i.v. day 1 & 4; for T/C (%) at Day 25: control median tumor ~2000 mm^3", "experimental": "M109 cells (NCI), derived from donor mice, were grown and expanded in tissue culture for in vivo implantation. Cells were grown in EMEM with 10% FBS and 1% streptomycin/penicillin media, kept in an incubator at 37° C. with 5% CO2 and split twice a week. Cells were trypsinized, harvested, washed, counted and prepared in PBS for transport to the vivarium. Cells were kept on ice until implantation was conducted with minimum lag time. A cell suspension of approximately 5×10^6 cells/mL was used. Balb/C mice were implanted subcutaneous with 100 μL of the above cell suspension (Day 0). Treatments were administered intravenously on Day 1 and Day 4. Compound doses were based on the content of 6-MP. Body weight and tumor volume were then measured twice weekly until the group's median tumor volume exceeded 2000 mm^3. The tumor volume for each mouse was determined by measuring two dimensions with calipers and calculated using the formula: tumor volume=(length×width^2)/2. Drug effects were determined by comparing tumor growth in treated versus control (no vehicle) mice. Three types of endpoints were used as the basis for comparison: (a) the percent difference in tumor volume (% T/C), measured when the control group's median tumor volume reached approximately 800–1100 mm^3 (exponential growth phase), (b) again when the control group's median tumor volume was approximately 2000 mm^3 and (c) the number of tumor regression (smaller tumor volume on Day 25 compared to Day 1) per group."}},
  "note": "pIC50: −log10 of the molar value.",
  "data": [
    {"smiles": "Sc1ncnc2nc[nH]c12", "note": "[Compound 1, 6-mercaptopurine, reference compound]", "values": [
      {"measurement": "pIC50", "setting": "[1]", "value": 5.57},
      {"measurement": "inhibiting the growth of M109 solid tumors", "setting": "[2]; Balb/C mice", "value": "ineffective"},
      {"measurement": "T/C (%) at Day 18", "setting": "[2]; total dose 60 mg/kg (6-MP content), control median tumor ~1000 mm^3", "value": 127.1, "unit": "%"},
      {"measurement": "T/C (%) at Day 25", "setting": "[2]; total dose 60 mg/kg (6-MP content)", "value": 122.0, "unit": "%"},
      {"measurement": "T/C (%) at Day 25", "setting": "[2]; total dose 200 mg/kg", "value": 183.8, "unit": "%"}
    ]}
  ]
}
